Experimental data published in patent US6447797B2, “Antibacterial phosphoinositides” (Abbott Laboratories, priority 1998, dated 2002).
Where “and” joins values, the source holds several entries; their conditions need not be identical. Identical values can stand only once. Entries after “also recorded” stand apart in the source; their conditions may differ. Marks after values point to notes of the source that are not given here.

Key:
[1] = test system: Haemophilus influenzae nontypeable bacterium strain adhering to Detroit 562 human pharynx carcinoma cells (DT 562); test: Inhibition of adhesion of 111-In radiolabeled Haemophilus influenzae to DT 562 human pharynx cells; type: cell-based; details: for Activity in adhesion bioassay (in words): adhesion of H. influenzae to human pharynx cells
From the text: To determine the ability of various phosphoinositides to prevent the adhesion of Haemophilus influenzae to human nasopharynx cells, the following procedure was used. Detroit 562 human pharynx carcinoma cells (DT 562) were obtained from the American Culture Type Collection. A Haemophilus influenzae nontypeable bacterium strain, which was isolated from the middle ear of an infected child, was obtained from Dr. Lauren Bakaletz of The Ohio State University in Columbus, Ohio.
The DT 562 cells were seeded into Costar 96 well plates at a density of 20,000 to 25,000 cells per well and were cultured in Dulbeco's modified Eagle Medium, available from Grand Island Biological Company. The cells were supplemented with 10% fetal bovine serum (FBS), available from Hyclone. The plates were incubated in a humidified atmosphere of 95% air and 5% carbon dioxide at 37° C. Plates containing cells were washed three times with 20 μL of Hanks Balanced Saline Solution (HBSS), available from Sigma Chemical Company of St. Louis, Mo., to remove serum proteins before the addition of bacteria in adhesion assays.
Haemophilus influenzae was streaked onto Chocolate agar plates, available from Becto Dickinson Diagnostic Instrument System of Sparks, Maryland, from frozen aliquots of a low passage number. The plates were then incubated at 37° C. in a humidified atmosphere of 95% air and 5% carbon dioxide for 18 hours to obtain logarithmically growing cultures. Bacteria harvested in phosphate buffered solution (PBS) supplemented with 0.05% bovine serum albumin (BSA), available from Miles Inc. of Kankakee, Ill., were centrifuged and resuspended in a volume of PBS/BSA yielding an optical density of 2.4 at a wavelength of 660 nm. ^111-Indium-oxine (^111-In), a high-energy, short-lived tracer was utilized to radiolabel the bacteria. Fifty μCi of ^111-In solution was added to 2.5 mL of the bacterial suspension and incubated for 20 minutes at 37° C. The radiolabeled bacteria were then washed two times with 10 mL HBSS to remove unbound ^111-In and resuspended in 5 mL HBSS supplemented with 30 mM 2-hydroxyethylpiperazine-N′-2-ethane sulfonic acid buffer, available from Life Technologies, a producer of Gibco BRL Products, of Grand Island, N.Y. Twenty-five μL of the ^111-In labeled bacterial suspension was preincubated with 25 μL of the test chemical in a polypropylene 96 well plate, available from Costar, for 15 minutes at 37° C. to allow binding of the test agent to the Haemophilus influenzae bacterium.
To determine the adhesion quantitation, the following procedure was used. Twenty-five μL of the preincubation mixture containing radiolabeled bacteria and the test chemical were pipetted into each well of the assay plate containing DT 562 cells. The assay plate was incubated for about 15 to about 20 minutes at 37° C. to allow adhesion of the bacteria to the cell monolayer. Nonadherent bacteria were removed by washing the plate three times in HBSS. The assay was terminated by the addition of 100 μL of 0.05 N sodium hydroxide to disrupt the cell monolayer and the adhering of the Haemophilus influenzae bacterium. The contents of each well were then placed in Cobra polypropylene tubes and counted on a Cobra Gamma Counter, available from Packard Bell. After background radiation was subtracted from each well, the average count of four replicates (per sample) was calculated. Results are presented in Table 1 as the percent of inhibition of bacterial adhesion, as compared to bacterial attachment, in control wells containing no test chemical and in which the percent of inhibition is zero.

[2] = test system: nontypeable Haemophilus influenzae; test: Neonatal rat model of nasopharyngeal colonisation by nontypeable Haemophilus influenzae; type: in vivo; details: for H.I. Recovered Log10 (CFU/mL): intranasal, nasal wash 24 hours after administration, 10 rat pups per group
Method: The attachment of Haemophilus influenzae to a mammal's nasopharynx area is believed to be the first stage of a bacterial infection which can lead to otitis media and other disorders and diseases caused by Haemophilus influenzae. A neonatal rat model was used to test the in vivo activity of phosphoinositides, and more specifically PI-3,4-PP, against nontypeable Haemophilus influenzae .
In the test, overnight cultures of nontypeable Haemophilus influenzae were prepared, washed twice and diluted with HBSS to obtain a bacterial suspension of less than 100,000 colony forming units (CFU) per mL. Sample solutions of the PI-3,4-PP were prepared by dissolving in HBSS at 2 mg/mL. The sample solution was mixed with an equal volume (0.5 mL) of the diluted bacterial suspension and incubated for one hour at 37° C. A bacterial control was prepared by mixing and incubating 0.5 mL HBSS with an equal volume of the diluted bacterial suspension. A solvent blank was prepared by incubating 1 mL of HBSS under the same conditions.
In the test, the experimental and control mixtures were used to inoculate 24-hour-old or younger rat pups at 10 μL each intranasally. Twenty-four hours after administration, samples of nasopharyngeal fluid were obtained by the slow instillation of 25 μL of HBSS into the left naris and the initial 10 μL discharge from the right naris was collected for plate count. This procedure insured that the fluid had passed through the nasopharynx. The nasal wash was then spread, or diluted and then spread, onto chocolate agar plates. The plates were incubated at 37° C. overnight and counted for the number of CFU's, an indicator of the number of viable bacteria.

[3] = Test Level 0.1 mg/mL, vs control wells without test chemical, average of four replicates

Compound	% Inhibition of bacterial adhesion [1, 3]	Activity in adhesion bioassay (in words) [1]	other results
L-a-phosphatidylinositol ammonium salt [PI, reference compound]	−2%	inactive	
1-D-myo-inositol-1,2,6-triphosphate sodium salt [I-1,2,6-PPP, reference compound]	6* %	inactive	
O=P([O-])(OCC(O)CO)OC1C(O)C(O)C(O)C(O)C1O.[Li+] [GPI, 1-(a-glycerophosphopoyl)-D-myo-insoitol lithium salt, reference compound]		inactive	% Inhibition of bacterial adhesion ([1]; Test Level 0.5 mg/mL): −3%
L-a-phosphatidylinositol-4-monophosphate sodium salt [PI-4-P]	24%	lower level of activity	
1-D-myo-inositol-1,3,4-triphosphate sodium salt [I-1,3,4-PPP, reference compound]	−1%	inactive	
dipalmitoylphosphatidylinositol-3,4-diphosphate ammonium salt [PI-3,4-PP]		especially active	% Inhibition of bacterial adhesion ([1]; Test Level 0.006 mg/mL): 31%; % Inhibition of bacterial adhesion ([1]; Test Level 0.013 mg/mL): 33%; % Inhibition of bacterial adhesion ([1]; Test Level 0.025 mg/mL): 58%; % Inhibition of bacterial adhesion ([1]; Test Level 0.050 mg/mL, ammonium salt): 80%; % Inhibition of bacterial adhesion ([1]; Test Level 0.050 mg/mL, listed as PI-3,4-P, ammonium salt): about 80%; % Inhibition of bacterial adhesion ([1]; Test Level 0.1 mg/mL, vs control wells without test chemical, average of four replicates, ammonium salt): 74% and 81%; Lowest concentration at which activity was exhibited ([1]; adhesion inhibition, dose response): 0.006 mg/mL; H.I. Recovered Log10 (CFU/mL) ([2]; Trial 1, inoculum dose 53 CFU/pup, 1 mg/mL PI-3,4-PP): 1.34 ± 0.58 Log10 (CFU/mL); Reduction in the number of bacteria recovered vs untreated group (HI+HBSS) ([2]; Trial 2, 1 mg/mL PI-3,4-PP, inoculum dose 630-720 CFU/pup): 0.6 log; H.I. Recovered Log10 (CFU/mL) ([2]; Trial 2, inoculum dose 630 CFU/pup, 1 mg/mL PI-3,4-PP): 2.54 ± 1.08 Log10 (CFU/mL); Mode of in vivo activity (in words) ([2]; neonatal rats, nasopharynx, ammonium salt): not bactericidal; also recorded: inhibits the attachment of nontypeable Haemophilus influenzae to nasopharyngeal cells of neonatal rats
dipalmitoylphosphatidylinositol-3-phosphate ammonium salt [PI-3-P]	24%	lower level of activity	
